According to PMC9575645 (Signal Transduction and Targeted Therapy, 2022):

Columns and labels:
[1] = system: LD lipolysis (FFA and glycerol release); experiment: Intracellular FFA and glycerol quantification in SARS-CoV-2-infected Vero E6 cells; format: cell-based, African green monkey; conditions: SARS-CoV-2-infected cells; 20 µM at 18 hpi; vs vehicle-treated control
Procedure: Cells were grown in 6- or 12-well plates or 8-well chamber slides to the desired confluency and then washed twice with phosphate-buffered saline (PBS, pH 7.4). They were then mock-inoculated with medium only or virus-inoculated with various multiplicities of infection (MOI): MOI of 0.01 or 1 FFU/cell for IAV, and MOI of 0.01 or 0.1 FFU/cell for SARS-CoV-2, BCoV, PEDV, PRRSV, and PSaV. Thereafter, each inoculum was absorbed for 1 h, and the cells were washed twice with PBS (pH 7.4). As shown in Supplementary Table 4, further treatments and incubations varied dependent on the virus species used. […]
To determine intracellular levels of free fatty acids, the different cultured cells infected with or without the seven target RNA viruses, or treated with or without different concentrations of chemicals, and the lung samples from experimental mice and hamsters were prepared as described above. The amount of intracellular free fatty acid was determined using a quantification kit from BioVision according to the manufacturer’s recommendations.^31 Briefly, 5x10^6 cells or 100 mg of lung tissue were mixed with 500 μL of chloroform-Triton X-100 (1% Triton X-100 in pure chloroform) with vortexing at five-minute intervals for 20 min at 20°C. […]

[2] = system: Bovine coronavirus (KWD20); experiment: In vitro antiviral activity against BCoV in HRT-18G cells (CCIF viral yield); format: cell-based; conditions: for IC50: HRT-18G cells
Procedure: (§1) Cells were grown in 6- or 12-well plates or 8-well chamber slides to the desired confluency and then washed twice with phosphate-buffered saline (PBS, pH 7.4). They were then mock-inoculated with medium only or virus-inoculated with various multiplicities of infection (MOI): MOI of 0.01 or 1 FFU/cell for IAV, and MOI of 0.01 or 0.1 FFU/cell for SARS-CoV-2, BCoV, PEDV, PRRSV, and PSaV. Thereafter, each inoculum was absorbed for 1 h, and the cells were washed twice with PBS (pH 7.4). As shown in Supplementary Table 4, further treatments and incubations varied dependent on the virus species used. Cells treated with PKA inhibitor H89 (5 μM or 50 μM concentration) or vehicle-treated immediately after absorption of IAV at an MOI of 1 FFU or SARS-CoV-2 at an MOI of 0.1 FFU were incubated for 24 and 36 h, respectively, and each cell lysate was used for the detection of HSL and pHSL by western blot analysis as described below. Cells treated with lipase inhibitors at the median incubation time of IAV or SARS-CoV-2 as described in the above condition were supplemented with LA, OA, or PA at 100 µM concentration and left incubation for further median incubation time. The cells were used to assess levels of intracellular TAGs, cholesterol, FFAs, glycerol, FAO, proinflammatory cytokines as well as viral genome copy numbers and virus titers as described below and in Supplementary Information.
(§2) To determine the antiviral effects of chemicals, serial 10-fold dilutions of each cell culture supernatant after three cycles of freezing and thawing cycles were prepared in appropriate medium supplemented with 100 U/mL penicillin and 100 μg/mL streptomycin as described above. To determine the viral infectivity titer in lung tissues from the hamsters challenged with or without SARS-CoV-2, or administered with or without inhibitors as described above, aseptically sampled lungs from five hamsters per group at day five post-virus infection were harvested. Cleared supernatants from lung tissue as produced from IAV-infected mice above were serially tenfold-diluted with virus growth medium. […] The cells were washed twice with PBS (pH 8.0), mounted with 60% glycerol, and observed byr inverted fluorescence microscopy. The number of cells showing a viral antigen-positive signal at the endpoint dilution were counted. IC50 was calculated using GraphPad Prism software version 8.4.2. […] CC50 data from the MTT assay and IC50 from the IF assay were both calculated using GraphPad Prism software version 8.4.2.

MDCK = experiment: Cytotoxicity, MTT assay, MDCK; format: cell-based, canine
Procedure: The cytotoxic effects of the chemicals and their solvents were tested by the MTT assay,[44] and its procedure is described in Supplementary Information.
The cytotoxic effects of the chemicals and their solvents used were tested by the MTT assay as described previously.^10 In brief, the chemicals were dissolved in DMSO to a stock concentration of 10 mM, and then freshly serially diluted in serum-free medium before being added to cell culture monolayers. The absorbance was measured using an enzyme-linked immunosorbent assay (ELISA) reader at an optical density (OD) of 570 nm. The percent cell viability was calculated using the following formula, [(ODsample˗ODblank)/(ODcontrol˗ODblank)] × 100%. According to the cell cytotoxicity data, dose-response curves were generated for the calculation of CC50 using GraphPad Prism software version 8.4.2.

[3] = system: proinflammatory cytokines; experiment: Proinflammatory cytokines in IAV-infected A549 cells (RT-qPCR, ELISA); format: cell-based, human; conditions: 20 μM
seven target RNA viruses = experiment: Broad-spectrum antiviral effect at 1-20 µM at different treatment times (RT-qPCR, CCIF); format: cell-based; conditions: all target RNA viruses, treated just prior to the peak of lipase activity vs immediately after virus absorption
[4] = system: Influenza A virus (H1N1) (PR8); conditions: for SI (CC50/IC50) / IC50: Influenza A virus (H1N1) (PR8); for IC50: A549 cells
[5] = system: Porcine epidemic diarrhea coronavirus (QIAP1401); experiment: In vitro antiviral activity against PEDV in Vero E6 cells (CCIF viral yield); format: cell-based; conditions: for IC50: Vero E6 cells
Procedure: as §1, §2

SMILES | levels of intracellular FFAs and glycerol [1] | SI (CC50/IC50) [2] | IC50 [2] [µM] | CC50 (MDCK) [µM] | proinflammatory cytokines IFN-α, IFN-β, TNF-α, IL-6, MCP-1 [3] | viral genome replication and infectious progeny production (seven target RNA viruses) | virus replication (genome copy number, infectious progeny) [4] | SI (CC50/IC50) [4] | IC50 [4] [µM] | SI (CC50/IC50) [5] | IC50 [5] [µM]
COc1nn(-c2ccc(NC(=O)OCc3ccccc3)c(C)c2)c(=O)o1 [CAY10499] | significantly reduced | 14 | 7.3 ± 0.52 | 110 ± 4.1 | significantly reduced | greater reduction in viral genome replication and infectious progeny production of all target RNA viruses in a dose-dependent manner | inhibiting the replication | 27 | 4.13 ± 0.46 | 30 | 3.19 ± 0.42
CN(C)C(=O)Nc1cccc(-c2ccc(N(C)C)cc2)c1 [Atglistatin] | significantly reduced | 152 | 1.2 ± 0.04 | 269 ± 3.2 | significantly reduced | greater reduction in viral genome replication and infectious progeny production of all target RNA viruses in a dose-dependent manner | inhibiting the replication | 251 | 0.82 ± 0.08 | 116 | 1.96 ± 0.14
